Measured values from US20230167127A1, “COMPOUNDS AND THEIR USE IN THE TREATMENT OF BACTERIAL INFECTION” (Hoffmann-La Roche Inc., priority 2020, published 2023).

Test system: Escherichia coli ATCC 25922
Assay: 50% growth inhibitory concentration (IC50) determination, Iso-Sensitest broth dilution
Assay type: cell-based
Conditions: Escherichia coli, ATCC25922, 16 h, strain Escherichia coli ATCC 25922; 10-point broth dilution, optical density at 600 nm over 16 h; read-out: Escherichia coli growth inhibition IC50
Summary of the method: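 Growth was tracked as optical density at 600 nm every 20 minutes for 16 h at 35±2° C. Compounds from DMSO stocks were serially diluted twofold over 10 points (e.g. 50–0.097 μM final) in Iso-Sensitest broth. Inhibition computed in log-phase growth to give IC50.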

SMILES | IC50 [nM]
N#Cc1c(OCCN2CCNCC2)ccc2c1CC(CNCCC1CN(c3ccc4c(n3)NC(=O)CO4)C(=O)O1)C2 (centres unmarked) [Example 143, 2-[[2-[2-oxo-3-(3-oxo-4H-pyrido[3,2-b][1,4]oxazin-6-yl)-1,3-oxazolidin-5-yl]ethylamino]methyl]-5-(2-piperazin-1-ylethoxy)-2,3-dihydro-1H-indene-4-carbonitrile; formic acid] | 833
Cc1ncc(C#N)c2c1CC(NCCCc1cn(-c3cnc4c(n3)NC(=O)CO4)c(=O)o1)C2 (single isomer, unassigned; enantiomer a) [Example 321, 1-Methyl-6-[3-[2-oxo-3-(3-oxo-4H-pyrazino[2,3-b][1,4]oxazin-6-yl)-1,3-oxazol-5-yl]propylamino]-6,7-dihydro-5H-cyclopenta[c]pyridine-4-carbonitrile, Enantiomer A] | < 97.7
O=C1COc2ccc(N3CC(CCCNC4Cc5ccnc(Cl)c5C4)OC3=O)nc2N1 (centres unmarked) [Example 92, 6-[5-[3-[(1-chloro-6,7-dihydro-5H-cyclopenta[c]pyridin-6-yl)amino]propyl]-2-oxo-1,3-oxazolidin-3-yl]-4H-pyrido[3,2-b][1,4]oxazin-3-one] | 373
NC1c2cccc(Cl)c2CC1CNCCc1cn(-c2ccc3c(n2)NC(=O)CO3)c(=O)o1 (racemic) [Example 170, 6-[2-oxo-5-[2-[[rac-1,2-trans-1-amino-4-chloro-2,3-dihydro-1H-inden-2-yl]methylamino]ethyl]-1,3-oxazol-3-yl]-4H-pyrido[3,2-b][1,4]oxazin-3-one] | < 97.7
NC1c2cccc(Cl)c2CC1CNCCC1CN(c2ccc3c(n2)NC(=O)CO3)C(=O)O1 (racemic) [Example 226, 6-[2-Oxo-5-[2-[[rac-1,2-trans-1-amino-4-chloro-2,3-dihydro-1H-inden-2-yl]methylamino]ethyl]-1,3-oxazolidin-3-yl]-4H-pyrido[3,2-b][1,4]oxazin-3-one] | < 97.7
Cc1nccc2c1CC(NCCCC1CN(c3ccc4c(n3)NC(=O)CO4)C(=O)O1)C2 (centres unmarked) [Example 94, 6-[5-[3-[(1-methyl-6,7-dihydro-5H-cyclopenta[c]pyridin-6-yl)amino]propyl]-2-oxo-1,3-oxazolidin-3-yl]-4H-pyrido[3,2-b][1,4]oxazin-3-one] | 485
Cc1ccnc2c1CC(NCCCC1CN(c3ccc4c(n3)NC(=O)CO4)C(=O)O1)C2 (centres unmarked) [Example 27, 6-[5-[3-[(4-methyl-6,7-dihydro-5H-cyclopenta[b]pyridin-6-yl)amino]propyl]-2-oxo-1,3-oxazolidin-3-yl]-4H-pyrido[3,2-b][1,4]oxazin-3-one] | 582
NC1CC(NC2Cc3cccc(F)c3C2)CCC12CN(c1ccc3c(n1)NC(=O)CO3)C(=O)O2 (racemic) [Example 167, 6-[rac-5,6-cis-5,8-trans-6-amino-8-[(4-fluoro-2,3-dihydro-1H-inden-2-yl)amino]-2-oxo-1-oxa-3-azaspiro[4.5]decan-3-yl]-4H-pyrido[3,2-b][1,4]oxazin-3-one; 2,2,2-trifluoroacetic acid] | 190
O=C1COc2ccc(N3CC(CCCNC4Cc5cccc(Cl)c5C4)OC3=O)nc2N1 (centres unmarked) [Example 4, 6-[5-[3-[(4-chloro-2,3-dihydro-1H-inden-2-yl)amino]propyl]-2-oxo-1,3-oxazolidin-3-yl]-4H-pyrido[3,2-b][1,4]oxazin-3-one] | < 97.7

More lines, now with the values ahead:

IC50 [nM] | SMILES
< 97.7 | Cc1nonc1COc1cc(C#N)c2c(c1)CC(CNCCC1CN(c3cnc4c(n3)NC(=O)CO4)C(=O)O1)C2 (centres unmarked) [Example 392, 6-[(4-methyl-1,2,5-oxadiazol-3-yl)methoxy]-2-[[2-[2-oxo-3-(3-oxo-4H-pyrazino[2,3-b][1,4]oxazin-6-yl)-1,3-oxazolidin-5-yl]ethylamino]methyl]-2,3-dihydro-1H-indene-4-carbonitrile]
< 97.7 | COc1nc(C)c2c(c1F)CC(CNCCC1CN(c3cnc4c(n3)NC(=O)CO4)C(=O)O1)C2 (centres unmarked) [Example 397, 6-[5-[2-[(4-fluoro-3-methoxy-1-methyl-6,7-dihydro-5H-cyclopenta[c]pyridin-6-yl)methylamino]ethyl]-2-oxo-1,3-oxazolidin-3-yl]-4H-pyrazino[2,3-b][1,4]oxazin-3-one]
111 | N#Cc1nc(OCC2(N)CC2)cc2c1CC(CNCCC1CN(c3ccc4c(n3)NC(=O)CO4)C(=O)O1)C2 (centres unmarked) [Example 125]
< 97.7 | Cc1ncc(F)c2c1CC(CNCCC1CN(c3cnc4c(n3)NC(=O)CO4)C(=O)O1)C2 (centres unmarked) [Example 51, 6-[5-[2-[(4-fluoro-1-methyl-6,7-dihydro-5H-cyclopenta[c]pyridin-6-yl)methylamino]ethyl]-2-oxo-1,3-oxazolidin-3-yl]-4H-pyrazino[2,3-b][1,4]oxazin-3-one]
< 97.7 | Cc1ncc(F)c2c1CC(C(C)NCC[C@@H]1CN(c3cnc4c(n3)NC(=O)CO4)C(=O)O1)C2 (some centres unmarked) [Example 331]
< 97.7 | CC(N)COc1cc(C#N)c2c(c1)CC(CNCCC1CN(c3cnc4c(n3)NC(=O)CO4)C(=O)O1)C2 (centres unmarked) [Example 193, 6-(2-aminopropoxy)-2-(((2-(2-oxo-3-(3-oxo-3,4-dihydro-2H-pyrazine[2,3-b][1,4]oxazin-6-yl)oxazolidin-5-yl)ethyl)amino)methyl)-2,3-dihydro-1H-indene-4-carbonitrile; 2,2,2-trifluoroacetic acid]
< 97.7 | Cc1nc(C#N)c2c(c1F)CC(CNCCC1CN(c3cnc4c(n3)NC(=O)CO4)C(=O)O1)C2 (centres unmarked) [Example 363, 4-fluoro-3-methyl-6-[[2-[2-oxo-3-(3-oxo-4H-pyrazino[2,3-b][1,4]oxazin-6-yl)-1,3-oxazolidin-5-yl]ethylamino]methyl]-6,7-dihydro-5H-cyclopenta[c]pyridine-1-carbonitrile; formic acid]
< 97.7 | N#Cc1cccc2c1CC(CNCCC1CN(c3ccc4c(n3)NC(=O)CS4)C(=O)O1)C2 (centres unmarked) [Example 64, 2-[[2-[2-oxo-3-(3-oxo-4H-pyrido[3,2-b][1,4]thiazin-6-yl)-1,3-oxazolidin-5-yl]ethylamino]methyl]-2,3-dihydro-1H-indene-4-carbonitrile]
727 | Nc1nnnn1CCOc1cc(F)c2c(c1)CC(CNCCC1CN(c3cnc4c(n3)NC(=O)CO4)C(=O)O1)C2 (centres unmarked) [Example 294, 6-[5-[2-[[6-[2-(5-aminotetrazol-1-yl)ethoxy]-4-fluoro-2,3-dihydro-1H-inden-2-yl]methylamino]ethyl]-2-oxo-1,3-oxazolidin-3-yl]-4H-pyrazino[2,3-b][1,4]oxazin-3-one; formic acid]
< 97.7 | CNC(=O)COc1ccc2c(c1Cl)CC(CNCCC1CN(c3ccc4c(n3)NC(=O)CO4)C(=O)O1)C2 (centres unmarked) [Example 108, 2-[[4-chloro-2-[[2-[2-oxo-3-(3-oxo-4H-pyrido[3,2-b][1,4]oxazin-6-yl)-1,3-oxazolidin-5-yl]ethylamino]methyl]-2,3-dihydro-1H-inden-5-yl]oxy]-N-methylacetamide]

Same assay, conditions: strain Escherichia coli ATCC 25922; 10-point broth dilution, optical density at 600 nm over 16 h; read-out: Escherichia coli growth inhibition IC50

IC50 [nM] | SMILES
153 | N#Cc1cccc2c1CC(NC1CCC3(CC1)CN(c1ccc4c(n1)NC(=O)CO4)C(=O)O3)C2 (single isomer, unassigned; isomer b) [Example 40, 2-[[2-oxo-3-(3-oxo-4H-pyrido[3,2-b][1,4]oxazin-6-yl)-1-oxa-3-azaspiro[4.5]decan-8-yl]amino]-2,3-dihydro-1H-indene-4-carbonitrile. Isomer B; formic acid]
